Results published in patent publication US20040121009A1, “Method of modifying the release profile of sustained release compositions” (Alkermes Controlled Therapeutics, Inc., priority 2002, published 2004).

Experiments:
[1] = for amount of peripheral fibrosis surrounding the microsphere depot in the subcutis / intensity of the granulomatous inflammatory reaction within the microsphere mass: co-administration with EPO-containing microparticles; for color of the skin overlying microsphere depots: rat, in vivo
Method: Animals were anesthetized with 5% halothane. Each animal was shaved and the back swabbed with alcohol. […] The microparticles were prepared as described above. The microparticles were injected into an interscapular site using a 21 gauge thinwall needle attached to a 1 mL syringe. Animals were dosed to receive a total of 10,000 U EPO either alone (Group A) or in combination with a total of 5 mg of hydrocortisone acetate (Group B), or 1 mg (Group C) or 5 mg (Group D) of triamcinolone diacetate. Animals were followed for 35 days post implantation.

anti-EPO antibody = test: Example 3: immunogenicity, anti-EPO antibody ELISA of sera; assay type: in vivo, rat
[2] = Example 3: serum EPO levels by ELISA; assay type: in vivo, rat; conditions: 10,000 U EPO microparticles plus 100 mg placebo microparticles (A), 5 mg triamcinolone acetonide admixed with 100 mg placebo microparticles (B) or 100 mg 20% hydrocortisone microparticles (C)
Method: (§1) Animals were dosed to receive a total of 10,000 Units of EPO in combination with a total of 100 mg of placebo microparticles (Group A), 5 mg of triamcinolone acetonide and 100 mg of placebo microparticles admixed (Group B) and 100 mg of 20% w/w hydrocortisone-containing microparticles (Group C). Sample collection time points were pre-bleed, 1, 2, 6, 12, 19, and 26 days.
To evaluate EPO serum levels, 0.4 mL samples were collected via tail vein on the days specified in Table 3 (four animals per group). After clotting, the samples were centrifuged and frozen (−70° C.).

[3] = Example 3: hematocrit testing; assay type: in vivo, rat; conditions: day 19 (maximum for corticosteroid groups); Groups A, B, C of Table 3
Method: as §1
To evaluate EPO serum levels, 0.4 mL samples were collected via tail vein on the days specified in Table 3 (four animals per group). After clotting, the samples were centrifuged and frozen (−70° C.). Serum EPO levels were quantitated by ELISA (R&D Systems), according to the manufacturer's instructions (Cat. No. DEP00, and the data were normalized for dose and body weight. Starting on day 12, serum samples were also assessed for EPO antibody levels weekly, using an ELISA This assay detects all antibody subclasses inasmuch as the detecting antibody is reactive with both immunoglobulin heavy (γ) and light chains. Hematocrit analyses were carried out as described in Example 1, and were tested at the following intervals relative to time of microsparticle administration: pre-bleed, 1, 2, 6, 12, 19, and 26 days.

[4] = Example 1: hematocrit testing; assay type: in vivo, rat; conditions: day 36; EPO microparticles plus 1 mg secondary agent (Group C)
Method: Animals were anesthetized with 5% halothane. […] The microparticles were prepared as described above. […] Hematocrits were evaluated manually following centrifugation for 5 minutes at 8000 rpm (on four animals per group) using a capillary tube.

Structure (SMILES)	amount of peripheral fibrosis surrounding the microsphere depot in the subcutis [1]	intensity of the granulomatous inflammatory reaction within the microsphere mass [1]	color of the skin overlying microsphere depots [1]	incidence of animals with anti-EPO antibodies (anti-EPO antibody; day 19, n=4/group)	anti-EPO antibody titer (anti-EPO antibody; day 19, the one positive animal of Group B)	EPO antibody titer as percentage of the titer in the control group (anti-EPO antibody; day 33)	incidence of animals with anti-EPO antibodies (anti-EPO antibody; day 33)	average serum EPO levels (steady state) between day 6 and day 19 [2]	hematocrit values [3]	hematocrit values [4]
CC(=O)OCC(=O)[C@@]1(O)CC[C@H]2[C@@H]3CCC4=CC(=O)CC[C@]4(C)[C@H]3[C@@H](O)C[C@@]21C [hydrocortisone acetate]	diminished	reduced	pallid in most rats	–	–	–	–	–	–	–
CC1(C)O[C@@H]2C[C@H]3[C@@H]4CCC5=CC(=O)C=C[C@]5(C)[C@@]4(F)[C@@H](O)C[C@]3(C)[C@]2(C(=O)CO)O1 [triamcinolone acetonide]	–	–	–	only one animal	1800	about 50%	75%	148.6±102.9 mU/mL	69.3%±3.3	–
CC(=O)OCC(=O)[C@@]1(O)[C@H](OC(C)=O)C[C@H]2[C@@H]3CCC4=CC(=O)C=C[C@]4(C)[C@@]3(F)[C@@H](O)C[C@@]21C [triamcinolone diacetate]	diminished	reduced	pallid in most rats	–	–	–	–	–	–	mid-60%
